Where a name gives a salt, the structure may show the parent alone. Read-outs that look alike come from different tables or passages of the source.
Assays:
D-1 receptor = molecular target: T1, D-1 receptor (Rattus norvegicus, UniProt P18901); test: Competitive inhibition assay: displacement of tritiated Compound B* (D-1) from rat striatal tissue; format: binding, rat (male Sprague-Dawley)
T1 construct: Stdatal tissue is excised, pooled, and homogenized; from tissue; host or cells: striatum of male Sprague-Dawley rats (washed homogenate pellet)

D-2 receptor = molecular target: T2, D-2 receptor (Rattus norvegicus, UniProt P61169); test: Competitive inhibition assay: displacement of 3H-spiperone (D-2) from rat striatal tissue; format: binding, rat (male Sprague-Dawley)
T2 construct: Stdatal tissue is excised, pooled, and homogenized; from tissue; host or cells: striatum of male Sprague-Dawley rats (washed homogenate pellet)

[1] = system: conditioned avoidance response (CAR) in rats; test: animal or person; format: in vivo; details: Rattus norvegicus
[2] = 3H-spiperone 0.2 nM, rat striatal tissue, pH 7.4, 37° C., 15 min
[3] = po, 1 h, read-out: Rat CAR MED Oral (minimal effective dose)
[4] = tritiated compound B 0.3 nM, rat striatal tissue, pH 7.4, 37° C., 15 min
[5] = sc, 0.5 h, read-out: Rat CAR MED sc (minimal effective dose)

T2 sequence (P61169 whole entry): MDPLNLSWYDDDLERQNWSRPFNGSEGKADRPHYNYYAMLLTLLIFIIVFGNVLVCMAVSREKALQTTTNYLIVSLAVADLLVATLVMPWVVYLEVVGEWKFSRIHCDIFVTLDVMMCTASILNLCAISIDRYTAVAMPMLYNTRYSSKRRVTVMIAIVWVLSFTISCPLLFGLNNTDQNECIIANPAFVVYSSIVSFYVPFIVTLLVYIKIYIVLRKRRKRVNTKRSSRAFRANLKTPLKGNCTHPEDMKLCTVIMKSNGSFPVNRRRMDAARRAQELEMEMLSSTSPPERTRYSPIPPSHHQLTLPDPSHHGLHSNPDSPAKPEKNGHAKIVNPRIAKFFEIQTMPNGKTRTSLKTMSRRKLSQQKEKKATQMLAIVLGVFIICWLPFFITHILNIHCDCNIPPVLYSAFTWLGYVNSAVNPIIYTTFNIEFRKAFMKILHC
T1 sequence (P18901 whole entry): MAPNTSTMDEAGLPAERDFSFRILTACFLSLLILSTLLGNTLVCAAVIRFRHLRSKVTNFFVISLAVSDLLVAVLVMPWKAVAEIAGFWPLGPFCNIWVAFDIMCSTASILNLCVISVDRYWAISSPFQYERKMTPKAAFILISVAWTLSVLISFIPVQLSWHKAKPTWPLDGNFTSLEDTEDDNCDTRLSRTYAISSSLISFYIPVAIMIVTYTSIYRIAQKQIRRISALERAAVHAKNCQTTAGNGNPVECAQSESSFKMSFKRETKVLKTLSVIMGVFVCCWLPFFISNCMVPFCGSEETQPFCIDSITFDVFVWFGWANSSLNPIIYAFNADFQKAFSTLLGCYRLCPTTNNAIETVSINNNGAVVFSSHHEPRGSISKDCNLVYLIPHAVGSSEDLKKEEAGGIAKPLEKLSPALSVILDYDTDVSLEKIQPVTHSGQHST

Structure (SMILES)	Ki (D-1 receptor)	Ki (D-2 receptor; [2])	minimal effective dose [1, 3]	Ki (D-1 receptor; [4])	minimal effective dose [1, 5]	Ki (D-2 receptor)
Cc1cc2c3c(c1O)CCCC3CN(C)CC2 (stereo not shown) [CH3 H 1 H H H H H, 2,6-Dimethyl-1,2,3,4,8,9,1 0,10a-Octahydro-Naphth[1,8. cd]azepine-7-ol, hydrochloride]	37 nM	1300 nM	≤ 30 mg/kg	–	–	–
CN1CCc2ccc(O)c3c2C(CCC3)C1 (stereo not shown) [CH H 1 H H H H H, 2-Methyl-1,2,3,4,8,9, 10,10a-OctahydroNaphth[1,8-cd]azepine-7-ol]	–	3350 nM	–	350 nM	–	–
CN1CCc2c(Cl)c(Cl)c(O)c3c2C(CCC3)C1 (stereo not shown) [Cl Cl 1 H H H H H, 5,6-Dichloro-2-Methyl-1,2,3,4,8,9, 10,10a-octahydronapth[1,8-cd]azepin-7-ol]	1.1 nM	230 nM	10 mg/kg	–	–	–
CN1CCc2cc(Cl)c(O)c3c2C(C1)CC3(C)C (stereo not shown) [Cl H 0 H CH3 CH3 H H]	65 nM	147 nM	–	–	3 mg/kg	–
COc1cc(NC(=O)Oc2c(Cl)cc3c4c2CCCC4CN(C)CC3)cc(OC)c1 (stereo not shown) [Cl H 1 3,5-(MeO)2PhNHCO H H H H]	6.6 nM	–	10 mg/kg	–	–	405 nM
CC(C)c1ccc(NC(=O)Oc2c(Cl)cc3c4c2CCCC4CN(C)CC3)cc1 (stereo not shown) [Cl H 1 4-i-PrPhNHCO H H H H, 6-Chloro-7-[(4-Isoporpylphenylamino) Carbonyloxy]-2-Methyl-1,2,3,4,8,9,10,10a-Octahydro-Naphth]1,8-cd]azepine, hydrochloride]	51 nM	–	≤ 30 mg/kg	–	–	680 nM
CN1CCc2cc(Cl)c(O)c3c2C(CCC3c2ccccc2)C1 (stereo not shown) [Cl H 1 H C6H5 H H H]	–	42800 nM	> 30 mg/kg	2080 nM	> 10 mg/kg	–
CN1CCc2cc(Cl)c(O)c3c2C(CCC3(C)C)C1 (stereo not shown) [Cl H 1 H CH3 CH3 H H, 6-Chloro-2,8.8-Trimethyl-1,2,3,4,8,9,10,10a-Octahydro-Naphth [1,8-cd]azepin-7-ol]	–	218 nM	< 30 mg/kg	256 nM	> 10 mg/kg	–
CC1CCC2CN(C)CCc3cc(Cl)c(O)c1c32 (stereo not shown) [Cl H 1 H CH3 H H H, 6-chloro-2,8-dimethyl-1.2.3.4.8.9.10.10a-octahydro-naphth [1.8-c.d]azepin-7-ol]	42 nM	248 nM	3 mg/kg	–	0.1 mg/kg	–
CC1=Cc2c(O)c(Cl)cc3c2C(C1)CN(C)CC3 (stereo not shown) [Cl H 1 H H -- CH3 --]	32 nM	264 nM	> 30 mg/kg	–	–	–
CC1CCC2CN(C)CCc3cc(Cl)c(O)c1c32 (stereo not shown) [Cl H 1 H H CH3 H H, 6-chloro-2,8-dimethyl-1.2.3.4.8.9.10.10a-octahydro-naphth [1.8-c.d]azepin-7-ol]	51 nM	389 nM	–	–	–	–
CC1Cc2c(O)c(Cl)cc3c2C(C1)CN(C)CC3 (stereo not shown) [Cl H 1 H H H CH3 H]	4.5 nM	250 nM	–	–	–	–
CN1CCc2cc(Cl)c(O)c3c2C(CCC3)C1 (stereo not shown) [Cl H 1 H H H H H, 6-Chloro-2-Methyl-1,2,3,4,8,9, 10, 10a-octahydro-naphth [1,8-cd]azepin-7-ol]	6.2 nM	500 nM	> 30 mg/kg	–	0.3 mg/kg	–
CN1CCc2cc(Cl)c(O)c3c2C(CCC3O)C1 (stereo not shown) [Cl H 1 H HO H H H]	–	6590 nM	–	110 nM	–	–
CN1CCc2cc(Cl)c(OC(=O)N(C)C)c3c2C(CCC3)C1 (stereo not shown) [Cl H 1 Me2NCO H H H H]	1010 nM	–	10 mg/kg	–	3 mg/kg	8010 nM
COc1cc(NC(=O)Oc2ccc3c4c2C(C)CCC4CN(C)CC3)cc(OC)c1 (stereo not shown) [H H 1 3,5-(MeO)2PhNHCO CH3 H H H]	35 nM	–	> 30 mg/kg	–	–	337 nM
CC(C)c1ccc(NC(=O)Oc2ccc3c4c2C(C)CCC4CN(C)CC3)cc1 (stereo not shown) [H H 1 4-iPrPhNHCO CH3 H H H]	134 nM	–	> 30 mg/kg	–	–	420 nM
